How the values were obtained:
[1] = tested on: cerebellar granule neurons; assay: Live/Dead (Red/Green) viability assay in cultured cerebellar granule neurons; assay type: cell-based, rat
Protocol: Neuronal cultures were switched to serum-free medium T-peptide, K-peptide, Core-peptide, V-peptide. VV-peptide, and T (L)-peptide. All peptides were used at 25 μM concentration. Phase contrast micrographs show appearance of the cultures after 24 h of peptide treatment. The Live/Dead viability assay was also performed. Nuclei of dead cells are stained red whereas cytoplasm of living cells are stained green. In the case of sick and dying cells, green staining is condensed;
(§1) Cerebellar granule neurons were switched to serum-free medium containing various concentrations of T-peptide, K-peptide, Core-peptide, V-peptide, VV-peptide, and T (L)-peptide. Cell viability was measured using two independent methods 24 h after peptide treatment and results are graphed. * indicates p<0.05 compared with control cells that were treated with HK: (4A) Results from Red/Green viability assay, (4B) Results from MTT assay;
Culturing and treatment of neurons: Cerebellar granule neurons were cultured from 7-8 day old rats as previously described. The neurons were plated in 24-well with poly-L-lysine coated glass coverslips at a density of ˜1 million cells/well in Basal Eagle's Medium with Earle's salts (BME) supplemented with 10% FCS, 25 mM KCl, 2 mM glutamine and […] gentamicin. To prevent mitosis of glial cells, cytosine arabinofuranoside ([…]) was added to culture 16-20 hrs after plating. Neuronal cultures were treated with peptides 6-7 days after plating. For treatment, the cultures were switched to serum-free medium containing 25 mM KCl (referred to as high potassium or HK medium). Although serum is required for proper maturation, after 5 days in culture, the neurons survive normally in the absence of serum provided depolarizing levels of KCl is added.
(§2) Cell viability quantification: Cell viability was quantified using the Live/Dead assays with a commercially available kit (Invitrogen). This is a two-color fluorescence assay utilizing two cell-permeable compounds, calcein acetoxymethyl (calcein AM) and ethidium homodimer-1 (EthD-1). Live cells have intracellular esterases that convert non-fluorescent calcein AM to the intensely green fluorescent calcein, which is retained within the cytoplasm of cells. Because dead cells have damaged membranes, EthD-1 enters and is fluorescent when bound to nucleic acids. EthD-1 stains the nuclei of damaged or dead cells. As recommended by the manufacturer, cells plated in wells with cover-slips were incubated in Live/Dead reagent (1 uM calcein AM and 4 uM EthD-1) for 30 min, and then mounted on slides. Cell viability was also analyzed using the MTT [3-(4,5-Dimethylthiazol-2-yl)-2,5-diphenyltetrazolium bromide] assay based on the evaluation of mitochondrial function. MTT assays were performed as previously described. Briefly, MTT (5 mg/ml in culture medium) was added to the culture medium and the cells incubated at 37° C. for 1 h. The assay was stopped by adding lysis buffer [20% sodium dodecyl sulfate (SDS) in 50% N,N-dimethylformamide, pH 4.7]. Absorbance was measured spectrophotometrically at 570 nm after an overnight incubation at room temperature.

cortical neurons = assay: Live/Dead viability assay in cortical neurons; assay type: cell-based; settings: 24 h, serum-free medium
Protocol: (§3) Primary cultures and cell lines were treated in serum-free medium with T-peptide for 24 hours. Viability was quantified using the Live/Dead assay. * indicates p<0.05 compared with control cells that were treated with serum-free medium without peptide: (6A) Results from the analyses of cerebellar granule neurons, cortical neurons, and kidney fibroblasts cultured from rats, (6B) Results from the HT22 and HEK293 cell lines;
as §2, with “As recommended by the manufacturer, cells plated in wells with cover-slips were incubated in Live/Dead reagent (1 uM calcein AM and 4 uM EthD-1) for 30 min, and then mounted on slides.” left out, “MTT assays were performed as previously described. Briefly, MTT (5 mg/ml in culture medium) was added to the culture medium and the cells incubated at 37° C. for 1 h. The assay was stopped by adding lysis buffer [20% sodium dodecyl sulfate (SDS) in 50% N,N-dimethylformamide, pH 4.7].” left out

adult rat brains = assay: Stereotaxic injection of peptide into adult rat brain; assay type: in vivo
Excerpt: Other aggregating peptides unrelated to tau are not neurotoxic. […] To examine this issue, we synthesized two peptides, STVIIE-R9 (designated at ST peptide), previously described by Pastor et al. (Pastor et al., 2008) and another de novo peptide, SQIVYA-R9. We were able to follow the kinetics of aggregation of both peptides into amyloid forming structures using the fluorescence of thioflavin-S and we characterized their morphology by TEM. […] Peptide induces neurodegeneration in the intact rat brain. […] To examine this issue, […] of T-peptide and K-peptide was sterotaxically injected into adult rat brains. Each animal received 2 injections—on one side into the striatum, and on the other side into the hippocampus. Rats were analyzed 1 week later. […] No damage is seen in the hippocampus however.

[2] = tested on: human embryonic kidney HEK293T cell line; assay: Live/Dead viability assay in HEK293T cell line; assay type: cell-based; settings: 24 h, serum-free medium
Protocol: as §3
(§4) HT-22 and HEK293 cell culture: HT-22 cells were maintained in DMEM supplemented with 10% FCS, 50 U/ml penicillin and 50 μg/ml streptomycin. HEK293 were maintained in DMEM supplemented with 10% FCS, 50 U/ml penicillin and 50 μg/ml streptomycin. Both cell lines were treated with peptide at 70-80% confluency in serum-free media.
(§5) Cell viability quantification: Cell viability was quantified using the Live/Dead assays with a commercially available kit (Invitrogen). This is a two-color fluorescence assay utilizing two cell-permeable compounds, calcein acetoxymethyl (calcein AM) and ethidium homodimer-1 (EthD-1). […] Cell viability was also analyzed using the MTT [3-(4,5-Dimethylthiazol-2-yl)-2,5-diphenyltetrazolium bromide] assay based on the evaluation of mitochondrial function. […] Absorbance was measured spectrophotometrically at 570 nm after an overnight incubation at room temperature.

kidney fibroblasts = assay: Live/Dead viability assay in primary kidney fibroblasts; assay type: cell-based, rat; settings: 24 h, serum-free medium
Protocol: as §3
Cultures of kidney fibroblasts and treatment with peptides: Kidneys were taken for 7-8 day old rats and placed in Dulbecco's Modified Eagle's Medium (DMEM). They were then diced and trypsinized for 8-12 mins. Trypsin was inactivated with trypsin inhibitor and centrifuged at 500 g for 1 min. Pellets were resuspended in DMEM and broken-up with a pasteur pipette 25 times, then centrifuged at 1000 g rpm for 1 min. […]
as §5

[3] = tested on: cerebellar granule neurons; assay: MTT assay in cerebellar granule neurons; assay type: cell-based, rat; settings: 24 h peptide treatment
Protocol: as §1
Culturing and treatment of neurons: Cerebellar granule neurons were cultured from 7-8 day old rats as previously described. The neurons were plated in 24-well with poly-L-lysine coated glass coverslips at a density of ˜1 million cells/well in Basal Eagle's Medium with Earle's salts (BME) supplemented with 10% FCS, 25 mM KCl, 2 mM glutamine and […] gentamicin. […]
as §5

Primary glial cells = assay: T-peptide toxicity in primary glial cells; assay type: cell-based; settings: data not shown
[4] = Live/Dead viability assay in HT-22 cell line; assay type: cell-based; settings: 24 h, serum-free medium
Protocol: as §3, §4, §5

CC[C@@H](C)[C@@H](NC(=O)[C@@H](CCC(N)=O)NC(=O)[C@H](NC(C)=O)C(C)C)C(=O)N[C@@H](C(=O)N[C@H](Cc1ccc(O)cc1)C(=O)N[C@H](CCCCN)C(=O)N[C@@H](CCCNC(=N)N)C(=O)N[C@@H](CCCNC(=N)N)C(=O)N[C@@H](CCCNC(=N)N)C(=O)N[C@@H](CCCNC(=N)N)C(=O)N[C@@H](CCCNC(=N)N)C(=O)N[C@@H](CCCNC(=N)N)C(=O)N[C@@H](CCCNC(=N)N)C(=O)N[C@@H](CCCNC(=N)N)C(=O)N[C@@H](CCCNC(=N)N)C(N)=O)C(C)C [T-peptide, Ac-vqivyk-R9—NH2]
doses at which significant death is observable ([1]; 24 h, serum-free HK medium): ≥ 5 µM | neurotoxicity / effect on neuronal survival ([1]; 24 h peptide treatment, HK medium): induces cell death in a concentration-dependent manner | sensitivity to T-peptide induced toxicity relative to cerebellar granule neurons (cortical neurons): slightly less sensitive | brain damage compared with K-peptide-injected rats (adult rat brains; 200 mg injected into striatum and hippocampus, analyzed 1 week later): display more damage than K-peptide-injected rats | damage in corpus callosum (adult rat brains; 200 mg injected, 1 week): shows damage and scarring | damage in hippocampus (adult rat brains; 200 mg injected, 1 week): does not seem to show much damage | damage in striatum (adult rat brains; 200 mg injected, 1 week): shows obvious damage | lateral ventricle (adult rat brains; 200 mg injected, 1 week): enlarged | doses up to which the cell line is resistant [2]: up to 50 μM | sensitivity to T-peptide toxicity relative to neuronal cell types (kidney fibroblasts): much less sensitive | MTT assay result (mitochondrial function, words) [3]: confirmed using the MTT assay | sensitivity to T-peptide toxicity relative to neurons (Primary glial cells): less sensitive than neurons | sensitivity to T-peptide toxicity [4]: moderate level of sensitivity

Reference: patent US20110144029A1, “Model Systems and Materials for the Study and Treatment of Neurodegenerative Diseases” (BOARD OF REGENTS, THE UNIVERSITY OF TEXAS SYSTEM, priority 2009, published 2011)
